pEC50, pIC50: −log10 of the molar value. Read-outs that look alike come from different tables or passages of the source.
How the values were obtained:
[1] = tested on: IFNγ-induced STAT1 phosphorylation (pSTAT1) in B16F10 cells; test: B16F10 Phospho-STAT1 HTRF proximal pharmacodynamic (PD) assay; type: cell-based, murine; settings: for pEC50: B16-F10, B16F10 cells; for Dihydrobenzofuran or Indoline x-fold>potency cellular: x-fold versus corresponding chromane comparator, B16F10 pSTAT1
Description: Example III-3: B16F10 (Murine Melanoma Cells) Phospho-STAT1 HTRF Proximal Pharmacodynamic (PD) Assay
B16F10 cells were grown and maintained in high glucose DMEM (Gibco, Catalog^#11965-092, Dun Laoghaire Co Dublin) supplemented with 10% fetal bovine serum (Gibco, Catalog^#10082-139, Dun Laoghaire Co Dublin). The cells were pelleted and resuspended in high glucose DMEM without phenol red (Gibco, Catalog^#11054-020, Dun Laoghaire Co Dublin), supplemented with 10% fetal bovine serum and plated in a 384 well Corning plate (product^#3765, Corning, NY) at 11,000 cells per well in a volume of 20 μL. The cells were dosed with the compounds of interest using an Echo Liquid Handler (Beckman Coulter, Brea, CA) at 50 μM top dose with 3-fold dilutions down to 0.002679 μM for a 10-point dose response. The plate was incubated for 3 hours at 37° C. and subsequently treated with recombinant mouse IFNγ (R&D Systems, Catalog^#485-MI, Minneapolis, MN; 100 nM final concentration) for 10 minutes at 37° C. to induce STAT1 phosphorylation followed by 3.3 μM staurosporine treatment for 1 hour at 37° C. to terminate phosphorylation. Media was then aspirated and 20 μL of 1× lysis buffer/blocking reagent (Cisbio Phospho-STAT1 kit, part^# 63ADK026PEH, Bedford, MA) was added. The plate was placed on a plate shaker for 30 minutes at room temperature, sealed, and stored at −80° C. until needed. To thaw, the plate was placed on shaker at room temperature until completely thawed while the antibody master mix was made (1:40 Phospho-STAT1 Eu Cryptate antibody, 1:40 Phospho-STAT d2 antibody, with the detection buffer; Cisbio Phospho-STAT1 kit, part^#63ADK026PEH, Bedford, MA). The antibody master mix was then dispensed at 4 μL per well into a 384 ProxiPlate Plus (PerkinElmer, part^#6008289, Waltham, MA) and 16 μL of lysate was added from the Corning plate to the Proxiplate using a VIAFLO 384 (INTEGRA). The plate was incubated for 3 hours at room temperature and read on an EnVision® (Perkin Elmer) plate reader with laser excitation at 335 nm and emission at 665 nm. Dotmatics Studies (Bishop's Stortford, UK) was utilized to generate all dose-response curves and calculate EC50s and are shown in Table 2.

[2] = molecular target: His tagged PTPN2 (TC45) protein (Homo sapiens (Human), UniProt P17706); test: PTPN2 Mobility Shift Assay (MSA); type: biochemical; settings: for Dihydrobenzofuran or Indoline x-fold>potency biochemical: x-fold versus corresponding chromane comparator, PTPN2 MSA
Chain of His tagged PTPN2 (TC45) protein (P17706 other isoform, or with tags, fused parts or gaps): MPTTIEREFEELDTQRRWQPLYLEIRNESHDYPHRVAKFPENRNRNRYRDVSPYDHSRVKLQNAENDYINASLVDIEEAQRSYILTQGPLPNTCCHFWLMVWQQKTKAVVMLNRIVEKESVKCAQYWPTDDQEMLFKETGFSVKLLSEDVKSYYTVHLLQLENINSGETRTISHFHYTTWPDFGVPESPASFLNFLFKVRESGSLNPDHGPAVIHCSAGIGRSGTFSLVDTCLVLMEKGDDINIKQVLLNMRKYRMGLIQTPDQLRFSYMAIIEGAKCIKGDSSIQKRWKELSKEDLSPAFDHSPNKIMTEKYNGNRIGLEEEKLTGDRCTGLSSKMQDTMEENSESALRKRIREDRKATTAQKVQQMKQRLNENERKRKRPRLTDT
Description: Example III-1: Mobility Shift Assay (MSA) Used to Determine Potency of PTPN2 Inhibitors
Compound activity was determined using in house His tagged PTPN2 (TC45) protein (SEQ ID NO: 1) in an in vitro enzymatic reaction. The enzymatic assay used to determine activity was a mobility shift assay using a LabChip EZ Reader by Caliper Life Sciences. The enzymatic reaction was carried out in assay buffer (50 mM HEPES pH 7.5, 1 mM EGTA, 10 mM EDTA, 0.01% Tween® 20, and 2 mM DTT). The compounds were dispensed on a white 384 well ProxiPlate™ (PerkinElmer Catalog #6008289) plate using the Labcyte Echo at varying concentrations (12 point, 1:3 dilution). The enzyme (at 0.5 nM) was incubated with compound for 10 minutes at room temperature. Thereafter, the substrate (phosphorylated insulin receptor probe sequence: ((OG488)-(NH—CH2—CH2—O—CH2—CH2—O—CH2—CO)-T-R-D-I—(PY)-E-T-D-Y—Y—R—K—K—NH2) (SEQ ID NO: 2) was added at 2 μM to the plates and incubated for another 10 minutes at room temperature. Finally, a quench solution (water and 4-bromo-3-(2-oxo-2-propoxyethoxy)-5-(3-{[1-(phenylmethanesulfonyl)piperidin-4-yl]amino}phenyl)thiophene-2-carboxylic acid) was added to the plates, which were then run on the EZ Reader (excitation 488 nm, emission 530 nm) to measure % conversion (the amount of phosphorylated substrate which was de-phosphorylated by PTPN2). […] The % inhibition was then used to calculate the IC50 values.

[3] = molecular target: His tagged full-length PTPN1 protein (Homo sapiens (Human), UniProt P18031); test: PTPN1 Mobility Shift Assay (MSA); type: biochemical; settings: enzyme 0.5 nM, substrate 2 μM
Chain of His tagged full-length PTPN1 protein (P18031 whole entry): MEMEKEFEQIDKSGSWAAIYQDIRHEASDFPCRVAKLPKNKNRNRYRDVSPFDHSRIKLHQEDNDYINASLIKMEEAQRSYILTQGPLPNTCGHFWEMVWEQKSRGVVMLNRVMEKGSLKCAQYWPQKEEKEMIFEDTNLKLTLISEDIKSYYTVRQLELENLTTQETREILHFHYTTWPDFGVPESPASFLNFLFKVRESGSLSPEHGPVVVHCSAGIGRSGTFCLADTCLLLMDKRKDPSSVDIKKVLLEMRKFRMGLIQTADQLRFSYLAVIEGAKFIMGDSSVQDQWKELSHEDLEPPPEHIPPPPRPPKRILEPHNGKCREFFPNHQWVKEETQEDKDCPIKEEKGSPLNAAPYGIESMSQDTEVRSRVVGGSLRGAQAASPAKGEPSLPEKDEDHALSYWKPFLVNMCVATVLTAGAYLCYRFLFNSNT
Description: Example III-2: Mobility Shift Assay (MSA) Used to Determine Potency of PTPN1 Inhibitors
Compound activity was determined using in house His tagged full-length PTPN1 protein (SEQ ID NO: 3) in an in vitro enzymatic reaction. The enzymatic assay used to determine activity is a mobility shift assay using a LabChip EZ Reader by Caliper Life Sciences. The enzymatic reaction was carried out in assay buffer (50 mM HEPES pH 7.5, 1 mM EGTA, 10 mM EDTA, 0.01% Tween® 20, and 2 mM DTT). The compounds were dispensed on a white 384 well ProxiPlate™ (PerkinElmer Cat ^#6008289) plate using a Labcyte Echo® liquid handler at varying concentrations (12 point, 1:3 dilution). The enzyme (at 0.5 nM) was incubated with compound for 10 minutes at room temperature. Thereafter, the substrate (phosphorylated insulin receptor probe sequence: ((OG488)-(NH—CH2—CH2—O—CH2—CH2—O—CH2—CO)-T-R-D-I—(PY)-E-T-D-Y—Y—R—K—K—NH2) (SEQ ID NO: 2) was added at 2 μM to the plates and incubated for another 10 minutes at room temperature. Finally, a quench solution (water and 4-bromo-3-(2-oxo-2-propoxyethoxy)-5-(3-{[1-(phenylmethanesulfonyl)piperidin-4-yl]amino}phenyl)thiophene-2-carboxylic acid) was added to the plates, which were then run on the EZ Reader (excitation 488 nm, emission 530 nm) to measure % conversion (the amount of phosphorylated substrate which was de-phosphorylated by PTPN1). […] The % inhibition was then used to calculate the IC50 values.

[4] = 3 hours compound, 100 nM mouse IFNγ 10 minutes, read-out: B16F10 IFNγ Induced pSTAT1 EC50
[5] = Mus musculus, Table 3, dihydrobenzofuran or indoline compound (X = O or NH), read-out: pSTAT1 EC50
[6] = Table 3, dihydrobenzofuran or indoline compound (X = O or NH)

Compound	pEC50 [1, 4]	pEC50 [1, 5]	Dihydrobenzofuran or Indoline x-fold>potency cellular [1]	pIC50 [2, 6]	pIC50 ([2]; enzyme 0.5 nM, substrate 2 μM)	Dihydrobenzofuran or Indoline x-fold>potency biochemical [2]	pIC50 [3]
O=C1CN(c2c(O)cc3c(c2F)C[C@H](CNCC2C4CCCC42)O3)S(=O)(=O)N1 (mixture of isomers) [Compound 126, 5-{(2R)-2-[({[(1RS,5SR)-bicyclo[3.1.0]hexan-6-yl]methyl}amino)methyl]-4-fluoro-6-hydroxy-2,3-dihydro-1-benzofuran-5-yl}-1λ^6,2,5-thiadiazolidine-1,1,3-trione]	5.44	5.44	>13.6	8.22	> 8.00	5.3	7.00 to 8.00
CC(C)CNC[C@H]1Cc2c(cc(O)c(N3CC(=O)NS3(=O)=O)c2F)O1 [Compound 100, 5-[(2R)-4-fluoro-6-hydroxy-2-{[(2-methylpropyl)amino]methyl}-2,3-dihydro-1-benzofuran-5-yl]-1λ^6,2,5-thiadiazolidine-1,1,3-trione]	6.07				> 8.00		7.00 to 8.00
CC(C)CNC[C@@H]1Cc2c(cc(O)c(N3CC(=O)NS3(=O)=O)c2F)O1 [Compound 101, 5-[(2S)-4-fluoro-6-hydroxy-2-{[(2-methylpropyl)amino]methyl}-2,3-dihydro-1-benzofuran-5-yl]-1λ^6,2,5-thiadiazolidine-1,1,3-trione]					< 7.00		< 7.00
CC(C)CNCC1Cc2c(cc(O)c(N3CC(=O)NS3(=O)=O)c2F)O1 (stereo not shown) [Compound 102, 5-(4-fluoro-6-hydroxy-2-{[(2-methylpropyl)amino]methyl}-2,3-dihydro-1-benzofuran-5-yl)-1λ^6,2,5-thiadiazolidine-1,1,3-trione]	5.47				7.00 to 8.00		7.00 to 8.00
O=C1CN(c2c(O)cc3c(c2F)C[C@H](CNCCC2CCCC2)O3)S(=O)(=O)N1 [Compound 103, 5-[(2R)-2-{[(2-cyclopentylethyl)amino]methyl}-4-fluoro-6-hydroxy-2,3-dihydro-1-benzofuran-5-yl]-1λ^6,2,5-thiadiazolidine-1,1,3-trione]	5.73				> 8.00		7.00 to 8.00
CC(C)(CO)CCNC[C@H]1Cc2c(cc(O)c(N3CC(=O)NS3(=O)=O)c2F)O1 [Compound 104, 5-[(2R)-4-fluoro-6-hydroxy-2-{[(4-hydroxy-3,3-dimethylbutyl)amino]methyl}-2,3-dihydro-1-benzofuran-5-yl]-1λ^6,2,5-thiadiazolidine-1,1,3-trione]	5.29				7.00 to 8.00		7.00 to 8.00
CC(C)(O)CCNC[C@H]1Cc2c(cc(O)c(N3CC(=O)NS3(=O)=O)c2F)O1 [Compound 105, 5-[(2R)-4-fluoro-6-hydroxy-2-{[(3-hydroxy-3-methylbutyl)amino]methyl}-2,3-dihydro-1-benzofuran-5-yl]-1λ^6,2,5-thiadiazolidine-1,1,3-trione]	5.53				7.00 to 8.00		7.00 to 8.00
O=C1CN(c2c(O)cc3c(c2F)C[C@H](CNCCC2CC(F)(F)C2)O3)S(=O)(=O)N1 [Compound 106, 5-[(2R)-2-({[2-(3,3-difluorocyclobutyl)ethyl]amino}methyl)-4-fluoro-6-hydroxy-2,3-dihydro-1-benzofuran-5-yl]-1λ^6,2,5-thiadiazolidine-1,1,3-trione]	5.73				> 8.00		7.00 to 8.00
O=C1CN(c2c(O)cc3c(c2F)C[C@H](CNCCCC(F)F)O3)S(=O)(=O)N1 [Compound 107, 5-[(2R)-2-{[(4,4-difluorobutyl)amino]methyl}-4-fluoro-6-hydroxy-2,3-dihydro-1-benzofuran-5-yl]-1λ^6,2,5-thiadiazolidine-1,1,3-trione]	5.88	5.88	2.7	7.88	7.00 to 8.00	0.7	7.00 to 8.00
O=C1CN(c2c(O)cc3c(c2F)C[C@H](CNCCCOCC(F)F)O3)S(=O)(=O)N1 [Compound 123, 5-[(2R)-2-({[3-(2,2-difluoroethoxy)propyl]amino}methyl)-4-fluoro-6-hydroxy-2,3-dihydro-1-benzofuran-5-yl]-1λ^6,2,5-thiadiazolidine-1,1,3-trione]				7.95	7.00 to 8.00	2.1	7.00 to 8.00
CC(C)(C)OC(=O)N1CCC(CNC[C@H]2Cc3c(cc(O)c(N4CC(=O)NS4(=O)=O)c3F)O2)CC1 [Compound 124, tert-butyl 4-[({[(2R)-4-fluoro-6-hydroxy-5-(1,1,4-trioxo-1λ^6,2,5-thiadiazolidin-2-yl)-2,3-dihydro-1-benzofuran-2-yl]methyl}amino)methyl]piperidine-1-carboxylate]				7.88	7.00 to 8.00	1.1	7.00 to 8.00
CC(C)CNC[C@H]1Cc2c(cc(O)c(N3CC(=O)NS3(=O)=O)c2F)N1C [Compound 156, 5-[(2R)-4-fluoro-6-hydroxy-1-methyl-2-{[(2-methylpropyl)amino]methyl}-2,3-dihydro-1H-indol-5-yl]-1λ^6,2,5-thiadiazolidine-1,1,3-trione]					< 7.00		< 7.00
O=C1CN(c2c(O)cc3c(c2F)C[C@H](CNCC(O)C(F)F)N3)S(=O)(=O)N1 (stereo partly drawn) [Compound 157, 5-[(2R)-2-{[(3,3-difluoro-2-hydroxypropyl)amino]methyl}-4-fluoro-6-hydroxy-2,3-dihydro-1H-indol-5-yl]-1λ^6,2,5-thiadiazolidine-1,1,3-trione]					< 7.00		< 7.00
